Results taken from a melting point compilation (Tetko et al.; mined from patent text by program, amines drawn as free bases though some values may be those of a salt).

First: CC#CCOc1ccc(SC(C(=O)NO)c2cccc3ccccc23)cc1 (configuration not stated)
Second: O=C(O)c1ccc(N(CCOc2cccc3ccccc23)C(=O)C(F)(F)F)cc1
The melting point of the first is lower: 140 °C for the first, 167 to 168 °C for the second.

Compared with `Cc1c(C)c2c(c(C)c1N)CC(C)(CN1CCC(Nc3ccccc3)CC1)O2` (configuration not stated), `Cc1nc(N2CCc3ccccc3CC2)c(C#N)c(=O)n1CC1CC1` is higher in melting point: 116 to 118 °C for the first, 119 to 122 °C for the second.

Compared with `Brc1cc(C#Cc2ccccc2)c(Br)cc1C#Cc1ccccc1`, `N#CC(OC(=O)CC=Cc1ccccc1)c1ccc2ccccc2c1` (configuration not stated) is lower in melting point: 155 to 158 °C for the first, 74 to 75 °C for the second.

Compared with `Cn1cc2c(Cl)cc(-c3ccccc3)nc2n1`, `CSc1cc(-c2nc(=O)c3ccccc3s2)ccn1` is lower in melting point: 177 to 179 °C for the first, 173 to 174 °C for the second.

First: COC(=O)c1c([N+](=O)[O-])cccc1S(=O)(=O)NC(C)(C)C
Second: CC(C)(C)[N+]([O-])=Cc1cc([N+](=O)[O-])ccc1O
The melting point of the first is lower: 89 to 91 °C for the first, 172 °C for the second.

Compared with `CC(C)OC(=O)N1CCC(c2ccc3nc(-c4ccc(S(C)(=O)=O)cc4F)oc3c2)CC1`, `CC(C)COc1c(-c2ccc(S(C)(=O)=O)cc2)cnn(CC(F)(F)F)c1=O` is lower in melting point: 170 to 174 °C for the first, 108 to 110 °C for the second.

First: O=C(/C=C/C=C/c1ccccc1Cl)NCCCCCC(=O)NO
Second: CCCCCCCNC(=O)Oc1ccc2ncccc2c1
The melting point of the first is higher: 129 to 131 °C for the first, 78 °C for the second.

Compared with `Cc1ccc(S(=O)(=O)n2cc(Br)c(C)c2C=O)cc1`, `Cc1cc(-n2c(C)ccc2-c2ccc(S(C)(=O)=O)cc2)ccc1-c1ccco1` is higher in melting point: 152 to 155 °C for the first, 160 to 162 °C for the second.

First: COc1ccc(N(CCCC(=O)O)C(=O)C(C)N(C(=O)c2ccco2)c2ccc(OC)cc2)cc1 (configuration not stated)
Second: COC(=O)[C@@H](Cc1c[nH]c2ccccc12)NS(=O)(=O)c1ccc(OC)cc1
The melting point of the first is higher: 204 to 206 °C for the first, 120 to 122 °C for the second.

First: O=c1[nH]ncn1N=Cc1cccnc1
Second: O=C1c2ccccc2C(=O)N1OCn1ccnc1
The melting point of the first is higher: 264 to 265 °C for the first, 158 to 160 °C for the second.

First: COc1ccc(Nc2nc(Cl)nc(NCCCO)n2)cc1
Second: c1ccc(OCCNc2nc(Nc3cc(C4CC4)n[nH]3)c3ccccc3n2)cc1
The melting point of the first is lower: 155 to 159 °C for the first, 203 °C for the second.

First: CN(C)CC1CCN(c2nc(N3CCCCC3)c3ncnc(N(C)Cc4cccc5ccccc45)c3n2)CC1
Second: CCN(CC)CC1CCCCN1CCNC(=O)N1c2cc(Cl)ccc2C(=O)Nc2cccnc21 (configuration not stated)
The melting point of the first is lower: 150 to 151 °C for the first, 169 to 170 °C for the second.

First: CC(NC1=C(N=Nc2ccccc2)C(=O)SC1)c1ccccc1 (configuration not stated)
Second: CCOC(=O)c1cc(S(=O)(=O)c2ccccc2)c2ccccn2c1=O
The melting point of the first is lower: 129 to 130 °C for the first, 182 °C for the second.

Compared with `CC1C2=CCC3C(CCC4(C)C(O)CCC34)C2(C)CCC1O` (configuration not stated), `CC(=O)C1=CCC2C3CCC4CC(O)CCC4(C)C3=CCC12C` (configuration not stated) is lower in melting point: 210 to 214 °C for the first, 188 to 190 °C for the second.

Compared with `CC(C)(C)c1cc(C(=O)c2nccs2)cc(C(C)(C)C)c1O`, `COc1ccc(C=O)c(-c2ccc(O[Si](C)(C)C(C)(C)C)cc2)c1O` is lower in melting point: 106 to 108 °C for the first, 103 to 106 °C for the second.

First: COc1cc2oc(=O)c3c(c2cc1[N+](=O)[O-])CCN(CC(C)=O)C3
Second: COc1c([N+](=O)[O-])cc(Br)c2c1C(=CC#N)CC2
The melting point of the first is higher: 222 to 225 °C for the first, 156 to 158 °C for the second.

Compared with `CN(CCc1c[nH]c2ccccc12)C(=O)CCCC(=O)O`, `Cc1ccc(CCCC(=O)O)cc1C` is lower in melting point: 125 to 126 °C for the first, 50 to 51 °C for the second.

First: COC(=O)c1ccccc1Oc1nc(Oc2ccccc2C(=O)OC)nc(Oc2ccccc2C(=O)OC)n1
Second: CC(=O)Nc1ccccc1C(=O)NC(=O)Nc1ccc(Oc2ncc(Br)cn2)c(C)c1
The melting point of the first is lower: 58 to 63 °C for the first, 186 to 191 °C for the second.

Compared with `CCCCCCCCCOc1ccc(Cl)c(C(N)=O)c1F`, `CCCCCCCCCCCCCCCC(=O)N[C@@H](Cc1ccc(O)cc1)C(=O)OC` is higher in melting point: 75 to 77 °C for the first, 100 °C for the second.

Compared with `CSc1nc(-c2ccncc2)n(-c2ccc(C)cc2)c(=O)c1C#N`, `Cc1c(Sc2ccc(Cl)cc2)nn(-c2cccc(Cl)c2)c(=O)c1C#N` is lower in melting point: greater than 250 °C for the first, 150 to 151 °C for the second.

Compared with `CCCOc1ccccc1C1=NC(=O)C2=NC(S)=NC2=N1`, `Cc1c(OCC(=O)O)ccc2c(=O)c3ccccc3oc12` is lower in melting point: 305 to 307 °C for the first, 244 to 247 °C for the second.

First: COc1ccc(CNc2nc(SC)ncc2C(=O)Nc2cncnc2)cc1Cl
Second: COc1ccccc1C(=O)Nc1ccc(Cl)c(C(=O)OC(C)C)c1
The melting point of the first is higher: 238 to 240 °C for the first, 94 to 96 °C for the second.

First: Nc1ccc2c(c1)C(=O)CCO2
Second: O=C1CCC2=C1C(c1ccc(Br)c(Br)c1)C1=C(CCS1)N2 (configuration not stated)
The melting point of the first is lower: 136 to 137 °C for the first, greater than 260 °C for the second.

Compared with `Oc1c(F)cc(Cn2cnnc2S)cc1F`, `NC(=O)c1nnn(Cc2cc(Br)cc(C(Cl)=C(Cl)Cl)c2)c1N` is lower in melting point: 184 to 185 °C for the first, 175 to 177 °C for the second.

First: CC(C)OC(=O)Cn1c(=O)n(C)c(=O)n(-c2cc(N=c3sc(=O)n4n3CCC=C4)c(F)cc2Cl)c1=O
Second: CCOC(=O)Cn1c(=O)n(Cc2ccc(Cl)c(Cl)c2)c(=O)c2c(C)c(Br)sc21
The melting point of the first is lower: 99 to 111 °C for the first, 166 to 167 °C for the second.

Compared with `Cn1nc2c(c1-c1ccc(Cl)cc1)Cc1ccccc1-2`, `O=C1c2ccccc2C(=O)N1Cc1cc(I)ccc1Cl` is higher in melting point: 131 to 133 °C for the first, 134 to 136 °C for the second.

Compared with `O=C(O)c1ccc(-n2c(-c3ccccc3)cc3c2CCCC3)cc1O`, `COc1ccc(C(=O)c2sc3ccccc3c2-c2ccccc2)cc1` is lower in melting point: 193 to 195 °C for the first, 94 to 95 °C for the second.

Compared with `CC(C1CC1)C1NNC(=S)N(N)C1=O` (configuration not stated), `OCC1CC2CC2N1c1cncc(Br)c1` (configuration not stated) is lower in melting point: 142 to 143 °C for the first, 90.4 to 93.5 °C for the second.

First: CCCCC(=O)c1ncc(-c2ccccn2)o1
Second: Cc1[nH]c2ccccc2c1C(=O)CCn1ccnc1
The melting point of the first is lower: 36 to 37 °C for the first, 196 to 197 °C for the second.

First: COc1cc(C)cc2c(Br)ccc(OC(C)C)c12
Second: COc1cc([N+](=O)[O-])c2ncccc2c1Cl
The melting point of the first is lower: 78 °C for the first, 204 to 206 °C for the second.

First: COC(=O)c1ccc(CCCOCCCCCCNCC(O)c2ccc(O)c(CO)c2)cc1 (configuration not stated)
Second: COC(=O)c1cc(C(=O)NC2CCCC2)c2cc(Cc3ccc(F)cc3)cnc2c1O
The melting point of the first is lower: 43 to 45 °C for the first, 221 to 222 °C for the second.

Compared with `O=C1N(N2CCCCC2)c2ccccc2C1(Cc1ccncc1)Cc1ccncc1`, `Cc1c(NC(=O)c2ccc(-c3ccc(Cl)s3)cc2)ccc2cc(CN3CCCCC3)cnc12` is higher in melting point: 140 to 143 °C for the first, 212 to 213 °C for the second.

First: Cc1cccc(C(=O)c2ncccc2C(=O)O)c1
Second: Nc1c(CC(=O)O)cccc1Oc1ccc(Cl)c(Cl)c1
The melting point of the first is higher: 184 to 189 °C for the first, 125 to 127 °C for the second.

First: Cc1ccccc1CNc1ncnc2c1ncn2C1OC(CO)C(O)C1O (configuration not stated)
Second: Cc1nc2c(N)nc3ccccc3c2n1CCC(N)=O
The melting point of the first is lower: 162 to 164 °C for the first, 237 to 239 °C for the second.

Compared with `Brc1ccc2c(c1)COC(N[C@@H]1CCc3ccccc31)=N2`, `N#CC1=C(C2CCNCC2)Nc2n[nH]cc2C1c1cccc(C#N)c1Br` (configuration not stated) is higher in melting point: 123 °C for the first, greater than 270 °C for the second.

`Cn1cc(-c2ccc(C(F)(F)F)cc2)c(=O)c(-c2cccc(C(F)(F)F)c2)c1` and `NC1=NC(c2ccc(OC(F)(F)F)cc2)(c2cccc(-c3cccnc3F)c2)C2=NOCCN12` (configuration not stated) cannot be ordered by melting point: 110 to 113 °C for the first, 102 to 117 °C for the second.

First: CNC(=O)Oc1ccc(C2CCC(=O)N2CCN2CCOCC2)cc1 (configuration not stated)
Second: CCN1CC[C@H](NC(=O)c2cc(Cl)c(N)c3c2OCCC3)[C@H](OC)C1 (relative stereo)
The melting point of the first is lower: 119 to 120 °C for the first, 154 °C for the second.

First: O=C1NC(=O)C(CCCc2ccc(O)cc2)O1 (configuration not stated)
Second: CCN(CC)CCNC(=O)c1cnc2cc(I)ccc2n1
The melting point of the first is higher: 132 to 133 °C for the first, 60 to 62 °C for the second.

Compared with `CNC1(c2ccccc2Cl)C(=O)Nc2c(F)cc(Cl)cc21` (configuration not stated), `CCOC(=O)c1nc(-c2ccsc2)n(-c2cccc(Cl)c2F)c1-c1ccc(F)c(Cl)c1` is lower in melting point: 219 °C for the first, 207 to 209 °C for the second.

First: Nc1nnc(-c2ccc(CN3CCCCCC3)s2)s1
Second: N#CN=C1CCCCN1C1=CC(CF)(CF)Oc2ccc(C(F)(F)C(F)(F)F)cc21
The melting point of the first is lower: 156 to 157 °C for the first, 196 to 197 °C for the second.

First: CCOC(=O)CNC(=O)c1cc(Cl)ccc1N
Second: CCCc1[nH]c(C(=O)OCC)c(C)c1CCC(=O)OCC
The melting point of the first is higher: 108 to 110 °C for the first, 61.5 to 63.5 °C for the second.

First: CCCOCCOc1ccc(-c2ccc3c(c2)C=C(C(=O)O)CCS3(=O)=O)cc1
Second: Cc1c(-c2cccc(OCc3ccccc3)c2)n(Cc2ccc(OCCN3CCCCC3)cc2)c2ccc(OCc3ccccc3)cc12
The melting point of the first is higher: 176 to 179 °C for the first, 125 to 126 °C for the second.

First: CSc1ccc2c(c1)C(O)(C1CCN(C)CC1)c1ccc(F)cc1S2 (configuration not stated)
Second: CC1(C)CCCSc2cc(Br)ccc21
The melting point of the first is higher: 180 to 189 °C for the first, 81 to 82 °C for the second.

First: CSC(=S)NN=Cc1nc(-c2ccccc2)[nH]c1C
Second: CC(C)Cc1nc(N)c(C(=O)c2c[nH]c3ccccc23)[nH]c1=O
The melting point of the first is lower: 180 to 185 °C for the first, 228 to 230 °C for the second.

First: Nc1ccc(Oc2cccc3c(Oc4ccc(N)c(O)c4)cccc23)cc1O
Second: NC1=NC(c2ccc(OC(F)F)cc2)(c2cccc(-c3cccnc3F)c2)C2=NCC3(COC3)CN12 (configuration not stated)
The melting point of the first is higher: 251 to 253 °C for the first, 96 to 107 °C for the second.

Compared with `Nc1nc(Cl)cc(OC(F)(F)F)n1`, `CSc1nc(Cl)cc(P(C)(C)=O)n1` is higher in melting point: 55 to 56 °C for the first, 172 to 182 °C for the second.

Compared with `COC(=O)[C@H](O)[C@@H](NC(=O)OC(C)(C)C)c1ccccc1`, `CC(C)CCOc1ccc(-n2cc(C(=O)O)cn2)cc1C#N` is higher in melting point: 130 to 132 °C for the first, 210 to 211 °C for the second.

First: CN(C)CNS(=O)(=O)c1ccc(-c2cnn(Cc3c(F)c(F)c(F)c(F)c3F)c(=O)c2-c2ccc(F)cc2)cc1
Second: CC(C)c1[nH]n(-c2c(Cl)cccc2Cl)c2nc(Cc3ccc(CC(=O)NCCN(C)C)cc3)nc(=O)c1-2
The melting point of the first is higher: 194 to 196 °C for the first, 170 to 172 °C for the second.

Compared with `CC1(C)C(=O)N(c2ccc(C#N)c(C(F)(F)F)c2)C(=O)N1CC=CCN1C(=O)N(c2ccc(C#N)c(C(F)(F)F)c2)C(=O)C1(C)C`, `Nc1nc2ccccc2n1-c1ccc(I)cc1` is higher in melting point: 188 to 190 °C for the first, 212 to 214 °C for the second.

First: COC(=O)CCC(C)C1CCC2C3=CC=C4C(C)(C)C(O)CCC4(C)C3CCC21C (configuration not stated)
Second: Cc1ccc(C23CCC(Cl)(CC2)CC3)cc1
The melting point of the first is higher: 124 to 128 °C for the first, 105 °C for the second.

Compared with `CCN(CC)c1nc(C)[nH]c2c(-c3ccc(Cl)cc3Cl)nc(C)c1-2`, `O=C(Nc1cnc2c(c1)CCCC2)C(Cl)(Cl)Cl` is higher in melting point: 146 to 148 °C for the first, 157 to 159 °C for the second.
